IC50 and activity data for 23 compounds are collected here from US20230083885A1, “MODULATORS OF INTEGRATED STRESS RESPONSE PATHWAY” (Praxis Biotech LLC, priority 2021, published 2023).

Test [1] relates to ATF4. The test can be described thus: ATF4 expression inhibition assay (ATF4 5'UTR luciferase reporter, thapsigargin-stressed). Format: cell-based. The note with it: Homo sapiens, HEK-293T, read-out: ATF4 inhibition. The protocol: The ATF4 reporter was prepared by fusing the human full length 5′UTR of ATF4 (NCBI Accession No. BC022088.2) upstream of the firefly luciferase coding sequence lacking the initiator methionine. The fused sequence was cloned into pLenti-EF1a-C-Myc-DDK-IRES-Puro cloning vector (Origen #PS100085) using standard methods.
HEK293T cells carrying the ATF4 luciferase reporter were plated on 96-well plates (Nunc) at 10,000 cells per well. Cells were treated two days after seeding with 100 nM thapsigargin (Tg) (Sigma-Aldrich #T9033) in the presence of different concentrations of selected compounds ranging from 0.1 nM to 10 μM. Cells without treatment or cells treated with Tg alone were used as controls. Assay plates containing cells were incubated for 3 hours at 37° C.
Luciferase reactions were performed using Luciferase Assay System (Promega #E1501) as specified by the manufacturer. Luminescence was read with an integration time of 1 s and a gain of 110 using a Cytation-5 multi-mode microplate reader (BioTek).
Background: In a reporter assay the amount or activity of a reporter protein is the signal.

The subject of test [2] is Chinese hamster ovary (CHO) cells. The test can be described thus: Protein synthesis assay (puromycin incorporation, Western blot). Format: cell-based. The note with it: Cricetulus griseus, read-out: % Protein synthesis relative to untreated (1 μM test compound). As to the method:
Chinese hamster ovary (CHO) cells were maintained at 37° C. and 5% CO2 in Dulbecco's Modified Eagle's Media (DMEM) supplemented with 10% fetal bovine serum, 2 mM L-glutamine, 100 U/ml penicillin, and 100 μg/ml streptomycin. After reaching 80% of confluence, cells were detached and seeded on 6 well plates in complete media, allowed to recover overnight and treated for 2 hours with 1 μM of the test compound (to assess protein synthesis levels in unstressed condition), or for 2 hours with 300 nM Tg in the presence of 1 μM of the test compound (to assess the recovery of protein synthesis in a stressed condition). Cells with Tg alone were used as controls.
After the 2 hours treatments, media were replaced by adding 10 μg/ml puromycin (Sigma Aldrich #P8833) in complete media for 30 min. Media were removed and cells were lysed with SDS-PAGE lysis buffer. Lysates were transferred to 1.5 ml tubes and sonicated for 3 min and total protein amount were quantified using BCA Protein Assay Kit (Pierce). Equal amount of protein (30 μg) was loaded on SDS-PAGE gels.
A HRP-conjugated secondary antibody (Rockland) was employed to detect immune-reactive bands using enhanced chemiluminescence (ECL Western Blotting Substrate, Pierce). Quantification of protein bands was done by densitometry using ImageJ software.
The percentage levels were normalized to the media alone condition, which correspond to 100% protein synthesis. […]

The mark [3] stands for this setting: HEK293T cells carrying ATF4 luciferase reporter, 100 nM thapsigargin, 3 hours.
[4] abbreviates: unstressed CHO cells (without Tg), 1 μM test compound, 2 hours, media alone = 100%.

Where two headings read alike, the source gives them in different places.

As for `O=C(COc1ccc(Cl)cc1)NC[C@H]1CC[C@H](c2nnc(-c3ccc(Cl)cc3)o2)CC1` [Compound 4, trans-2-(4-chlorophenoxy)-N-((-4-(5-(4-chlorophenyl)-1,3,4-oxadiazol-2-yl)cyclohexyl)methyl)acetamide], the IC50 in test [1] (3 h) was > 1000 nM. Moreover, the activity at 1 µM in test [2] (CHO, 2 h) was 123%.

Turning to `O=C(N[C@H]1CC[C@H](c2nnc(-c3ccc(Cl)cc3)o2)CC1)c1ccc2cc(Cl)ccc2n1` [Compound 5, trans-6-chloro-N-(4-(5-(4-chlorophenyl)-1,3,4-oxadiazol-2-yl)cyclohexyl)quinoline-2-carboxamide], the IC50 in test [1] (setting [3]) is < 10 nM. Moreover, the activity at 1 µM in test [2] (setting [4]) amounted to 139%.

Turning to `O=C(N[C@H]1CC[C@H](c2nnc(-c3ccc(Cl)cc3)o2)CC1)c1cc2cc(Cl)ccc2o1` [Compound 6, trans-5-chloro-N-(4-(5-(4-chlorophenyl)-1,3,4-oxadiazol-2-yl)cyclohexyl)benzofuran-2-carboxamide], the IC50 in test [1] (setting [3]) was < 10 nM. Also, the activity at 1 µM in test [2] (setting [4]) stood at 111%.

Regarding `O=C(COc1ccc(Cl)c(F)c1)N[C@H]1CC[C@H](c2nnc(-c3ccc(Cl)cc3)o2)CC1` [Compound 7, trans-2-(4-chloro-3-fluorophenoxy)-N-(4-(5-(4-chlorophenyl)-1,3,4-oxadiazol-2-yl)cyclohexyl)acetamide], in test [1] (setting [3]), the IC50 is < 10 nM. In addition, in test [2] (setting [4]), the activity at 1 µM is 80.9%.

On to `O=C(COc1ccc(Cl)cc1)N[C@H]1CC[C@H](c2nnc(-c3ccc(Cl)cc3)o2)CC1` [Compound 8, trans-2-(4-chlorophenoxy)-N-(4-(5-(4-chlorophenyl)-1,3,4-oxadiazol-2-yl)cyclohexyl)acetamide], for which the IC50 in test [1] (3 h) was < 10 nM. Besides, the activity at 1 µM in test [2] (CHO, 2 h) came to 96.9%.

Consider `O=C(N[C@H]1CC[C@H](c2nnc(COc3ccc(Cl)cc3)o2)CC1)c1ccc2cc(Cl)ccc2n1` [Compound 9, trans-6-chloro-N-(4-(5-((4-chlorophenoxy)methyl)-1,3,4-oxadiazol-2-yl)cyclohexyl)quinoline-2-carboxamide], for which, in test [1] (setting [3]), the IC50 was 10 to 100 nM. Moreover, the activity at 1 µM in test [2] (setting [4]) is 204%.

`O=C(N[C@H]1CC[C@H](c2nnc(COc3ccc(Cl)cc3)o2)CC1)c1cc2cc(Cl)ccc2o1` [Compound 10, trans-5-chloro-N-(4-(5-((4-chlorophenoxy)methyl)-1,3,4-oxadiazol-2-yl)cyclohexyl)benzofuran-2-carboxamide]: the IC50 in test [1] (setting [3]) is < 10 nM. Moreover, in test [2] (setting [4]), the activity at 1 µM was found to be 165%.

Take `O=C(N[C@H]1CC[C@H](c2nnc(COc3ccc(Cl)cc3)o2)CC1)C1CNc2cc(Cl)ccc2O1` (stereo partly drawn) [Compound 11, trans-6-chloro-N-(4-(5-((4-chlorophenoxy)methyl)-1,3,4-oxadiazol-2-yl)cyclohexyl)-3,4-dihydro-2H-benzo[b][1,4]oxazine-2-carboxamide]: the IC50 in test [1] (setting [3]) is 10 to 100 nM. The activity at 1 µM in test [2] (setting [4]) amounted to 140%.

Regarding `O=C(COc1ccc(Cl)c(F)c1)N[C@H]1CC[C@H](c2nnc(COc3ccc(Cl)cc3)o2)CC1` [Compound 12, trans-2-(4-chloro-3-fluorophenoxy)-N-(4-(5-((4-chlorophenoxy)methyl)-1,3,4-oxadiazol-2-yl)cyclohexyl)acetamide], in test [1] (setting [3]), the IC50 is < 10 nM. For the same compound, the activity at 1 µM in test [2] (setting [4]) is 144%.

Turning to `O=C(COc1ccc(Cl)c(F)c1)N[C@H]1CC[C@H](c2nnc(COc3ccc(Cl)c(F)c3)o2)CC1` [Compound 13, trans-2-(4-chloro-3-fluorophenoxy)-N-(4-(5-((4-chloro-3-fluorophenoxy)methyl)-1,3,4-oxadiazol-2-yl)cyclohexyl)acetamide], the IC50 in test [1] (setting [3]) was < 10 nM. Further, the activity at 1 µM in test [2] (setting [4]) is 134%.

As to `O=C(COc1ccc(Cl)c(F)c1)N[C@H]1CC[C@H](c2nnc(-c3ccc4cc(Cl)ccc4n3)o2)CC1` [Compound 14, trans-2-(4-chloro-3-fluorophenoxy)-N-(4-(5-(6-chloroquinolin-2-yl)-1,3,4-oxadiazol-2-yl)cyclohexyl)acetamide], the IC50 in test [1] (setting [3]) was < 10 nM. In addition, the activity at 1 µM in test [2] (setting [4]) amounted to 176%.

As to `O=C(N[C@H]1CC[C@H](c2nnc(-c3ccc(Cl)cc3)o2)CC1)c1cnc(C(F)F)cn1` [Compound 15, trans-N-(4-(5-(4-chlorophenyl)-1,3,4-oxadiazol-2-yl)cyclohexyl)-5-(difluoromethyl)pyrazine-2-carboxamide], the IC50 in test [1] (setting [3]) is 10 to 100 nM. Besides, the activity at 1 µM in test [2] (setting [4]) was 103%.

In the case of `O=C(N[C@H]1CC[C@H](c2nnc(COc3ccc(Cl)cc3)o2)CC1)c1cnc(C(F)F)cn1` [Compound 16, trans-N-(4-(5-((4-chlorophenoxy)methyl)-1,3,4-oxadiazol-2-yl)cyclohexyl)-5-(difluoromethyl)pyrazine-2-carboxamide], the IC50 in test [1] (setting [3]) was > 1000 nM. In test [2] (setting [4]), the activity at 1 µM is 115%.

`O=C(COc1ccc(Cl)c(F)c1)N[C@H]1CC[C@H](c2nnc(-c3ccc(Cl)c(F)c3)o2)CC1` [Compound 17, trans-2-(4-chloro-3-fluorophenoxy)-N-(4-(5-(4-chloro-3-fluorophenyl)-1,3,4-oxadiazol-2-yl)cyclohexyl)acetamide]: the IC50 in test [1] (setting [3]) was < 10 nM. In test [2] (setting [4]), the activity at 1 µM is 105%.

With `O=C(COc1ccc(Cl)c(F)c1)N[C@H]1CC[C@H](c2nnc(C3CNc4cc(Cl)ccc4O3)o2)CC1` (stereo partly drawn) [Compound 18, trans-N-(4-(5-(6-chloro-3,4-dihydro-2H-benzo[b][1,4]oxazin-2-yl)-1,3,4-oxadiazol-2-yl)cyclohexyl)-2-(4-chloro-3-fluorophenoxy)acetamide], the IC50 in test [1] (setting [3]) is < 10 nM. For the same compound, the activity at 1 µM in test [2] (setting [4]) came out at 127%.

As to `O=C(Nc1ccc2cc(Cl)ccc2n1)[C@H]1CC[C@H](c2nnc(-c3ccc(Cl)cc3)o2)CC1` [Compound 19, trans-4-(5-(4-chlorophenyl)-1,3,4-oxadiazol-2-yl)-N-(6-chloroquinolin-2-yl)cyclohexane-1-carboxamide], the IC50 in test [1] (3 h) lay within 10 to 100 nM. In addition, the activity at 1 µM in test [2] (CHO, 2 h) turned out to be 100%.

Take `O=C(Nc1ccc2cc(Cl)ccc2n1)[C@H]1CC[C@H](c2nnc(C3CCC(F)(F)CC3)o2)CC1` [Compound 28, trans-N-(6-chloroquinolin-2-yl)-4-(5-(4,4-difluorocyclohexyl)-1,3,4-oxadiazol-2-yl)cyclohexanecarboxamide]: the IC50 in test [1] (setting [3]) was in the range of 100 to 1000 nM. The activity at 1 µM in test [2] (setting [4]) came to 23.8%.

In the case of `O=C(Nc1ccc2cc(Cl)ccc2n1)[C@H]1CC[C@H](c2nnc(C3CCC(C(F)(F)F)CC3)o2)CC1` (stereo partly drawn) [Compound 29, trans-N-(6-chloroquinolin-2-yl)-4-(5-(4-(trifluoromethyl)cyclohexyl)-1,3,4-oxadiazol-2-yl)cyclohexanecarboxamide], the IC50 in test [1] (setting [3]) was > 1000 nM. In addition, the activity at 1 µM in test [2] (setting [4]) turned out to be 11.5%.

Turning to `O=C(Nc1ccc2cc(Cl)ccc2n1)[C@H]1CC[C@H](c2nnc([C@H]3CC[C@H](C(F)(F)F)CC3)o2)CC1` [Compound 30, trans-N-(6-chloroquinolin-2-yl)-4-(5-(trans-4-(trifluoromethyl)cyclohexyl)-1,3,4-oxadiazol-2-yl)cyclohexanecarboxamide], the IC50 in test [1] (setting [3]) lay within 100 to 1000 nM. The activity at 1 µM in test [2] (setting [4]) is 16.7%.

On to `O=C(Nc1ccc2cc(Cl)ccc2n1)[C@H]1CC[C@H](c2nnc([C@H]3CC[C@@H](C(F)(F)F)CC3)o2)CC1` [Compound 31, trans-N-(6-chloroquinolin-2-yl)-4-(5-(cis-4-(trifluoromethyl)cyclohexyl)-1,3,4-oxadiazol-2-yl)cyclohexanecarboxamide], for which the IC50 in test [1] (setting [3]) was > 1000 nM. The activity at 1 µM in test [2] (setting [4]) came to 4.9%.

As to `O=C(Nc1ccc2cc(Cl)ccc2n1)[C@H]1CC[C@H](c2nc(-c3ccc(Cl)cc3)co2)CC1` [Compound 32, trans-4-(4-(4-chlorophenyl)oxazol-2-yl)-N-(6-chloroquinolin-2-yl)cyclohexanecarboxamide], the IC50 in test [1] (3 h) is > 1000 nM. Moreover, the activity at 1 µM in test [2] (CHO, 2 h) is 136%.

Regarding `O=C(Nc1ccc2cc(Cl)ccc2n1)[C@H]1CC[C@H](c2nc(-c3ccc(Cl)cc3)cs2)CC1` [Compound 33, trans-4-(4-(4-chlorophenyl)thiazol-2-yl)-N-(6-chloroquinolin-2-yl)cyclohexanecarboxamide], in test [1] (3 h), the IC50 was > 1000 nM. Further, in test [2] (CHO, 2 h), the activity at 1 µM is 11.4%.

Turning to `O=C(COc1ccc(Cl)c(F)c1)N[C@H]1CC[C@H](c2nc(-c3ccc(Cl)cc3)cs2)CC1` [Compound 34, trans-2-(4-chloro-3-fluorophenoxy)-N-(4-(4-(4-chlorophenyl)thiazol-2-yl)cyclohexyl)acetamide], in test [1] (3 h), the IC50 is < 10 nM. Further, in test [2] (CHO, 2 h), the activity at 1 µM turned out to be 83.4%.
